Measurements reported in patent US12479927B2, “Compounds comprising cleavable linker and uses thereof” (priority 2017, dated 2025).

target: Escherichia coli β-galactosidase (Escherichia coli, UniProt P00722); assay: in vitro; conditions: recombinant enzyme, pH 5
Protocol: Method 1. Escherichia coli β-galactosidase
MPS used as a standard material was dissolved in PBS buffer solution to make 500 uM solution. […] This was followed by the addition of enzyme solution (14 μL of 1 mg/mL). When comparing with human β-galactosidase, 21 μL of enzyme solution (1 mg/mL) was added to achieve the same molar concentration, and the compound of the present invention and MPS each having an amount of 140 μL and […] of the buffer solution (pH 7.4) were mixed. The resulting reaction mixture was incubated at 37° C. Escherichia coli β-galactosidase enzyme (Sigma G4155) was used in the reaction mixture. The enzyme reaction solution was aliquoted at 0 min before the reaction and at a predetermined time after the reaction, respectively, wherein each aliquot was 70 μL. Then, the remaining compound of the present invention or MPS, and a material liberated by the enzyme reaction were quantitatively analyzed by HPLC.

Escherichia coli β-galactosidase, sequence (P00722 2-1024): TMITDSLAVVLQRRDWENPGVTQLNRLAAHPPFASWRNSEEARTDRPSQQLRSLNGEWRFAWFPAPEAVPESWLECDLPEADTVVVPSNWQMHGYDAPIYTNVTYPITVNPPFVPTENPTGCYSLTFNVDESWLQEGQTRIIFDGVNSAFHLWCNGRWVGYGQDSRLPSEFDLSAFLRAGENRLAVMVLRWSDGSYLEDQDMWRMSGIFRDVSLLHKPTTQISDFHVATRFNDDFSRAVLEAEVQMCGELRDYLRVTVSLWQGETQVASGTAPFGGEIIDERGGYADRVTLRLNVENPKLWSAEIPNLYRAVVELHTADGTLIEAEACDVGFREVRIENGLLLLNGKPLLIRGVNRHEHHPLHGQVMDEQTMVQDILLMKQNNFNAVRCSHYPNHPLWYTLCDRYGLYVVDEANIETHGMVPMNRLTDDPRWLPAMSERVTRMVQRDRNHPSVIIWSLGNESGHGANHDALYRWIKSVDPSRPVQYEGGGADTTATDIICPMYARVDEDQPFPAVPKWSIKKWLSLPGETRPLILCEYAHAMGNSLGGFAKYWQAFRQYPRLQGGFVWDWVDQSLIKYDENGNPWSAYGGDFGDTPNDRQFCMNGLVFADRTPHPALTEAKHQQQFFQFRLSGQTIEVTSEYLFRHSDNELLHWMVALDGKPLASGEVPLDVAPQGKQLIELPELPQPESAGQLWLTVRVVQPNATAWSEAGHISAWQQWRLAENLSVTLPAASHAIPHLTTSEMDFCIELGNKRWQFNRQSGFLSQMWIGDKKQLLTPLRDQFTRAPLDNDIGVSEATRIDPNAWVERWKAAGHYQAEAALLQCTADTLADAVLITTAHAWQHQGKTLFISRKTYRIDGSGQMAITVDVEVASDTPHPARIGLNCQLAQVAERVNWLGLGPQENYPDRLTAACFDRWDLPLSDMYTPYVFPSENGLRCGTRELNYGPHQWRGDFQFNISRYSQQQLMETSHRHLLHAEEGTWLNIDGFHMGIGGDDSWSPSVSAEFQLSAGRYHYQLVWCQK

Compound	half-life at 100 μM [min]
CCc1c2c(nc3ccc(OS(=O)(=O)Oc4cc(C(=O)NCCOCCOCCOCCN=[N+]=[N-])ccc4O[C@@H]4O[C@H](CO)[C@H](O)[C@H](O)[C@H]4O)cc13)-c1cc3c(c(=O)n1C2)COC(=O)[C@]3(O)CC [Compound B-2]	5.75

same assay, conditions: recombinant enzyme, pH 7.4

Compound	half-life at 100 μM [min]
CSCC[C@H](NC(=O)[C@H](Cc1ccccc1)NC(=O)CNC(=O)CNC(=O)[C@@H](N)Cc1ccc(OS(=O)(=O)Oc2ccccc2OC2O[C@H](CO)[C@H](O)[C@H](O)[C@H]2O)cc1)C(=O)O (stereo partly drawn) [Compound B-9]	< 5
CCC(C)[C@H]([C@H](CC(=O)N1CCC[C@@H]1[C@@H](OC)[C@H](C)C(=O)NC(Cc1ccccc1)C(=O)O)OC)N(C)C(=O)[C@H](NC(=O)[C@@H](C(C)C)N(C)C(=O)OCc1ccc(OS(=O)(=O)Oc2cc(C(=O)NCCOCCOCCOCCN=[N+]=[N-])ccc2O[C@H]2O[C@H](CO)[C@H](O)[C@H](O)[C@H]2O)cc1)C(C)C (stereo partly drawn) [Compound B-3]	< 10
O=C(OCCc1cccnc1)OCc1ccc(OS(=O)(=O)Oc2ccccc2O[C@@H]2O[C@H](CO)[C@H](O)[C@H](O)[C@H]2O)cc1 [Compound A-9]	< 5
O=C(Cc1cccnc1)OCc1ccc(OS(=O)(=O)Oc2ccccc2O[C@@H]2O[C@H](CO)[C@H](O)[C@H](O)[C@H]2O)cc1 [Compound A-10]	< 5
CC(C)(C)OC(=O)NCCN(CC(=O)O)C(=O)Cn1cnc2c(OCc3ccc(OS(=O)(=O)Oc4ccccc4OC4O[C@H](CO)[C@H](O)[C@H](O)[C@H]4O)cc3)nc(N)nc21 (stereo partly drawn) [Compound A-18]	< 5
CC(C)(C)OC(=O)NC(Cc1ccc(OS(=O)(=O)Oc2cc(C(=O)NCCOCCOCCOCCN=[N+]=[N-])ccc2O[C@@H]2O[C@H](CO)[C@H](O)[C@H](O)[C@H]2O)cc1)C(=O)O (stereo partly drawn) [Compound A-2]	3.71 ± 0.22
CC(C)(C)OC(=O)NC(Cc1ccc(OS(=O)(=O)Oc2cc3ccccc3cc2O[C@@H]2O[C@H](CO)[C@H](O)[C@H](O)[C@H]2O)cc1)C(=O)O (stereo partly drawn) [Compound A-12]	< 5
CC(C)(C)OC(=O)NC(Cc1ccc(OS(=O)(=O)Oc2cc(CCC(=O)NCCOCCOCCOCCN=[N+]=[N-])ccc2OC2O[C@H](CO)[C@H](O)[C@H](O)[C@H]2O)cc1)C(=O)O (stereo partly drawn) [Compound A-6]	4.6 ± 1.72
C[C@]12CC[C@@H]3c4ccc(OS(=O)(=O)Oc5cc(C(=O)NCCOCCOCCOCCN=[N+]=[N-])ccc5O[C@@H]5O[C@H](CO)[C@H](O)[C@H](O)[C@H]5O)cc4CC[C@H]3[C@@H]1CC[C@@H]2O [Compound B-6]	< 5
CCc1c2c(nc3ccc(OS(=O)(=O)Oc4cc(C(=O)NCCOCCOCCOCCN=[N+]=[N-])ccc4O[C@@H]4O[C@H](CO)[C@H](O)[C@H](O)[C@H]4O)cc13)-c1cc3c(c(=O)n1C2)COC(=O)[C@]3(O)CC [Compound B-2]	0.28
CC(OCN(CCN(C)C)C(=O)OCc1ccc(OS(=O)(=O)Oc2ccccc2OC2O[C@H](CO)[C@H](O)[C@H](O)[C@H]2O)cc1)c1ccccc1 (stereo partly drawn) [Compound A-17]	< 1
Cc1cn([C@H]2CC(O)[C@@H](CO)O2)c(=O)nc1OCc1ccc(OS(=O)(=O)Oc2ccccc2O[C@@H]2O[C@H](CO)[C@H](O)[C@H](O)[C@H]2O)cc1 (stereo partly drawn) [Compound A-13]	< 5
CC/C(=C(\c1ccccc1)c1ccc(OCC[N+](C)(C)Cc2c(OC)cc(OS(=O)(=O)Oc3cc(C(=O)NCCOCCOCCOCCN=[N+]=[N-])ccc3OC3O[C@H](CO)[C@H](O)[C@H](O)[C@H]3O)cc2OC)cc1)c1ccccc1 (stereo partly drawn) [Compound B-11]	< 5
Nc1nc(OCc2ccc(OS(=O)(=O)Oc3ccccc3OC3O[C@H](CO)[C@H](O)[C@H](O)[C@H]3O)cc2)c2ncn([C@@H]3O[C@H](CO)C(O)[C@@H]3O)c2n1 (stereo partly drawn) [Compound A-4]	< 5
COc1ccc(/C=C\c2cc(OC)c(OC)c(OC)c2)cc1OS(=O)(=O)Oc1cc(C(=O)NCCOCCOCCOCCN=[N+]=[N-])ccc1O[C@@H]1O[C@H](CO)[C@H](O)[C@H](O)[C@H]1O [Compound B-7]	< 5

target: T1, Human β-galactosidase (Homo sapiens, UniProt P16278); assay: Enzymatic cleavage assay, Method 2; format: biochemical; conditions: recombinant enzyme, 100 μM, pH 5
T1 construct: purchased R&D 6464-GH-020
T1 sequence (P16278 29-677): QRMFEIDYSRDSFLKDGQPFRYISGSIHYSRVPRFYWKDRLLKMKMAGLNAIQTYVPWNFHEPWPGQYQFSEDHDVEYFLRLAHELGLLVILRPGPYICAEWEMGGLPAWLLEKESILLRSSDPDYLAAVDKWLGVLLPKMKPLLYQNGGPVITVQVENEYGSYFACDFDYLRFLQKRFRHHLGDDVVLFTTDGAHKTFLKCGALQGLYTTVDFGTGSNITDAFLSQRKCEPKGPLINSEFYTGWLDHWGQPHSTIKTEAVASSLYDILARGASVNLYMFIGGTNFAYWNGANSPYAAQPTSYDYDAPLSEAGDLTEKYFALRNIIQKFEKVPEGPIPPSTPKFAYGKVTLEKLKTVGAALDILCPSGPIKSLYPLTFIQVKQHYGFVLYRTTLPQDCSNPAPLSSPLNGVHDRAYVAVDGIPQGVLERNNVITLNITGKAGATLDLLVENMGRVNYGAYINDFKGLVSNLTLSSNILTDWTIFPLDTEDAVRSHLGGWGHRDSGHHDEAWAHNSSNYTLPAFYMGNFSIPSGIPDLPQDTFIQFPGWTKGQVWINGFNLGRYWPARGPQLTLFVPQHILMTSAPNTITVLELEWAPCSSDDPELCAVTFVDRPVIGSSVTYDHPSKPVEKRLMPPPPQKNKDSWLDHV
Protocol: Method 2) Human β-galactosidase
MPS used as a standard material was prepared as a solution to have a concentration of 500 μM in PBS buffer solution. […] Then, 140 μL of 0.1 mg/mL enzyme solution was added thereto, thereby preparing an enzyme reaction solution in a total amount of 700 μL. The reaction mixture was incubated at 37° C. Human β-galactosidase enzyme (R&D 6464-GH-020) was used in the reaction mixture.

Compound	Q part release t1/2(min)
CCc1c2c(nc3ccc(OS(=O)(=O)Oc4cc(C(=O)NCCOCCOCCOCCN=[N+]=[N-])ccc4O[C@@H]4O[C@H](CO)[C@H](O)[C@H](O)[C@H]4O)cc13)-c1cc3c(c(=O)n1C2)COC(=O)[C@]3(O)CC [Compound B-2]	39.41

same assay, conditions: recombinant enzyme, 100 μM, pH 7.4

Compound	Q part release t1/2(min)
CCc1c2c(nc3ccc(OS(=O)(=O)Oc4cc(C(=O)NCCOCCOCCOCCN=[N+]=[N-])ccc4O[C@@H]4O[C@H](CO)[C@H](O)[C@H](O)[C@H]4O)cc13)-c1cc3c(c(=O)n1C2)COC(=O)[C@]3(O)CC [Compound B-2]	112.2

same assay, conditions: recombinant enzyme, Method 2, pH 7.4, 37° C., HPLC, read-out: TG release t1/2(min)

Compound	half-life at 100 μM [min]
CC(C)(C)OC(=O)NC(Cc1ccc(OS(=O)(=O)Oc2ccccc2O[C@@H]2O[C@H](C(=O)O)[C@@H](O)[C@H](O)[C@H]2O)cc1)C(=O)O (stereo partly drawn) [Compound A-3]	10.7

same assay, conditions: recombinant enzyme, pH 5

Compound	half-life at 100 μM [min]
CCc1c2c(nc3ccc(OS(=O)(=O)Oc4cc(C(=O)NCCOCCOCCOCCN=[N+]=[N-])ccc4O[C@@H]4O[C@H](CO)[C@H](O)[C@H](O)[C@H]4O)cc13)-c1cc3c(c(=O)n1C2)COC(=O)[C@]3(O)CC [Compound B-2]	5.33

tested on: KB cancer cells; assay: cells; format: cell-based; conditions: Homo sapiens, KB, read-out: KB cell IC50(nM)
Protocol: KB cancer cells were collected and seeded in 24-well plates at a density of 30,000 cells per well in 2 mL of medium, and cultured for 24 hours. Then, the serial dilutions of compound C-1 obtained in Example 108 were treated from 30 nM to 0.0096 nM, the serial dilutions of compound C-2 obtained in Example 109 were treated from 1000 nM to 0.32 nM, serial dilutions of the compound C-3 obtained in Example 110 and the compound C-7 obtained in Example 114 were treated from 25 nM to 0.0016 nM, and serial dilutions of the drug MMAF-OMe were treated from 10 nM to 0.0097 nM. The serial dilutions of compounds C-5 and C-6 obtained in Example 112 and Example 113 were treated from 100 nM to 0.0001 nM, and the serial dilutions of drug seco-DUBA were treated from 100 nM to 0.001 nM. Serial dilutions of the compounds C-4 and C-9 obtained in Example 111 and Example 116 were treated from 1000 nM to 0.001 nM, and the serial dilutions of drug CBI dimer were treated by from 10 nM to 0.00001 nM. Serial dilutions of the compound C-8 obtained in Example 115 and the drug CBI-indole were treated from 100 nM to 0.0001 nM. After 72 hours, 96 hours, or 144 hours of incubation, 0.2 mL of 3-(4,5-dimethylthiazol-2-yl)-2,5-diphenyltetrazolium bromide (MTT) dye, dissolved in PBS buffer solution (5 mg/mL), was added to each well of the plates. The formazans formed by reduction of the MTT dye by mitochondrial oxidoreductases in the living cells were dissolved in DMSO, and measured using the absorbance at 550 nm.

Compound	IC50 [nM]
COc1cc2[nH]c(C(=O)N3C[C@@H](CCl)c4c3cc(O)c3cccc(C)c43)cc2cc1OCCN(C)C [CBI-indole, reference compound]	0.07

same assay, conditions: Homo sapiens, KB; MTT; 72 hours, 96 hours, or 144 hours of incubation; read-out: KB cell IC50

Compound	IC50 [nM]
Cc1cccc2c(O)cc3c(c12)[C@H](CCl)CN3C(=O)c1cn2cc(NC(=O)c3ccc(O)cc3)ccc2n1 [Seco-DUBA, reference compound]	0.18

same assay, conditions: MTT; 72 hours, 96 hours, or 144 hours of incubation; read-out: KB cell IC50

Compound	IC50 [nM]
NCCCC[C@@H](NC(=O)CCc1cn(CCOCCOCCOCCNC(=O)c2ccc(O[C@@H]3O[C@H](CO)[C@H](O)[C@H](O)[C@H]3O)c(OS(=O)(=O)Oc3cc4c(c5ccccc35)[C@H](CCl)CN4C(=O)c3cn4cc(NC(=O)c5ccc(O)cc5)ccc4n3)c2)nn1)C(=O)NCCOCCOCCNC(=O)CC[C@@H](NC(=O)c1ccc(NCc2cnc3nc(N)[nH]c(=O)c3n2)cc1)C(=O)O [Compound C-6]	0.45
COc1cc2[nH]c(C(=O)N3C[C@@H](CCl)c4c3cc(OS(=O)(=O)Oc3cc(C(=O)NCCOCCOCCOCCn5cc(CCC(=O)N[C@H](CCCCN)C(=O)NCCOCCOCCNC(=O)CC[C@@H](NC(=O)c6ccc(NCc7cnc8nc(N)[nH]c(=O)c8n7)cc6)C(=O)O)nn5)ccc3O[C@@H]3O[C@H](CO)[C@H](O)[C@H](O)[C@H]3O)c3cccc(C)c43)cc2cc1OCCN(C)C [Compound C-8]	0.12
NCCCC[C@@H](NC(=O)CCc1cn(CCOCCOCCOCCNC(=O)c2ccc(O[C@@H]3O[C@H](CO)[C@H](O)[C@H](O)[C@H]3O)c(OS(=O)(=O)Oc3cc4c(c5ccccc35)[C@H](CCl)CN4C(=O)CCCC(=O)N3C[C@@H](CCl)c4c3cc(O[C@@H]3O[C@H](CO)[C@H](O)[C@H](O)[C@H]3O)c3ccccc43)c2)nn1)C(=O)NCCOCCOCCNC(=O)CC[C@@H](NC(=O)c1ccc(NCc2cnc3nc(N)[nH]c(=O)c3n2)cc1)C(=O)O [Compound C-4]	0.02
CC(=O)Oc1cc2c(c3ccccc13)[C@H](CCl)CN2C(=O)CCCC(=O)N1C[C@@H](CCl)c2c1cc(OS(=O)(=O)Oc1cc(C(=O)NCCOCCOCCOCCn3cc(CCC(=O)N[C@H](CCCCN)C(=O)NCCOCCOCCNC(=O)CC[C@@H](NC(=O)c4ccc(NCc5cnc6nc(N)[nH]c(=O)c6n5)cc4)C(=O)O)nn3)ccc1O[C@@H]1O[C@H](CO)[C@H](O)[C@H](O)[C@H]1O)c1ccccc21 [Compound C-9]	0.1
CCc1c2c(nc3ccc(OS(=O)(=O)Oc4cc(C(=O)NCCOCCOCCOCCn5cc(CCC(=O)N[C@H](CCCCN)C(=O)NCCOCCOCCNC(=O)CC[C@@H](NC(=O)c6ccc(NCc7cnc8nc(N)[nH]c(=O)c8n7)cc6)C(=O)O)nn5)ccc4O[C@@H]4O[C@H](CO)[C@H](O)[C@H](O)[C@H]4O)cc13)-c1cc3c(c(=O)n1C2)COC(=O)[C@]3(O)CC [Compound C-2]	> 500
